Source: ChEMBL document CHEMBL5154704 (Bioorg Med Chem, 2022)

Key:
[1] = biological target: Free fatty acid receptor 1 (Homo sapiens, UniProt O14842); test: Agonist activity at human FFA1 expressed in CHO cells assessed as increase in calcium level measured by Fluo-4-AM staining based FLIPR assay; type: functional, cell-based
[2] = Toxicity in ICR mouse at 500 mg/kg, ig measured after 7 days; type: organism-based; conditions: in vivo, po, 168 h, time 7 day

Chain of Free fatty acid receptor 1 (O14842 whole entry): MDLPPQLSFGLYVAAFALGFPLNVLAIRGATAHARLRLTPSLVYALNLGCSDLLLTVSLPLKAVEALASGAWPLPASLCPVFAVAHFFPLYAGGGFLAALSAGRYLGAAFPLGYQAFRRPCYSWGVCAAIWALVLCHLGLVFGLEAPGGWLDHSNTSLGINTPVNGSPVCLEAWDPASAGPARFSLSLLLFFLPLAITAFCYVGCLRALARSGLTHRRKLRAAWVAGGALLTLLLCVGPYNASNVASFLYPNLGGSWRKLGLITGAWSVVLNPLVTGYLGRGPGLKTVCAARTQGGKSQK

Row | EC50 [1] | SMILES | Activity [2]
1 | 0.061 µM | Cc1cc(OCCCS(C)(=O)=O)ccc1-c1cccc(COc2ccc(OCC(=O)O)c(F)c2)c1 | 
2 |  | COc1ccc2cc(-c3cccc(COc4ccc(OCC(=O)O)c(F)c4)c3)ccc2c1 | Non-Toxic
